Measured values taken from ChEMBL document CHEMBL4414674, “Paraconiothins A-J: Sesquiterpenoids from the Endophytic Fungus Paraconiothyrium brasiliense ECN258” (J Nat Prod, 2019).
Activity calls are given as the source filed them. No cut-off for these calls is given here.

Key:
Format in all cases: cell-based
[1] = molecular target: T1, Peroxisome proliferator-activated receptor gamma (Homo sapiens) (UniProt P37231); assay: Inhibition of PPARgamma (unknown origin) transfected in human HEK293 cells co-expressing CMV-beta galactosidase assessed as effect on beta-galactosidase activity at 50 uM after 48 hrs by luciferase reporter gene assay
T1 sequence (whole entry): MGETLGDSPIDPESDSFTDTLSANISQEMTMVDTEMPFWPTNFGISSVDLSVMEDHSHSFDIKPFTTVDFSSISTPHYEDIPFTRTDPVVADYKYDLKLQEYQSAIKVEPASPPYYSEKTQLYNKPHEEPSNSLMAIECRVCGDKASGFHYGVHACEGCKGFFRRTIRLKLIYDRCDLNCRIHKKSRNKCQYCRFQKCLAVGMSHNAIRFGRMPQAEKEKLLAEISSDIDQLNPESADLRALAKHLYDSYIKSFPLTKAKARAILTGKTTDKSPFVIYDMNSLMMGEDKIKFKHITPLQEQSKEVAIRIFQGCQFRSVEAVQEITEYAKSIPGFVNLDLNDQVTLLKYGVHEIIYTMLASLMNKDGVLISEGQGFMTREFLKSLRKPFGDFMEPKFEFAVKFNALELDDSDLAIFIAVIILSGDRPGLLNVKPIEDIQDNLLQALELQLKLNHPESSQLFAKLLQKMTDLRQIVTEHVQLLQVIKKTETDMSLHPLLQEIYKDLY

[2] = molecular target: T2, Retinoic acid receptor alpha (Homo sapiens) (UniProt P10276); assay: Inhibition of human RARalpha transfected in human HEK293 cells co-expressing CMV-beta galactosidase assessed as effect on beta-galactosidase activity at 50 uM after 48 hrs by luciferase reporter gene assay
T2 sequence (whole entry): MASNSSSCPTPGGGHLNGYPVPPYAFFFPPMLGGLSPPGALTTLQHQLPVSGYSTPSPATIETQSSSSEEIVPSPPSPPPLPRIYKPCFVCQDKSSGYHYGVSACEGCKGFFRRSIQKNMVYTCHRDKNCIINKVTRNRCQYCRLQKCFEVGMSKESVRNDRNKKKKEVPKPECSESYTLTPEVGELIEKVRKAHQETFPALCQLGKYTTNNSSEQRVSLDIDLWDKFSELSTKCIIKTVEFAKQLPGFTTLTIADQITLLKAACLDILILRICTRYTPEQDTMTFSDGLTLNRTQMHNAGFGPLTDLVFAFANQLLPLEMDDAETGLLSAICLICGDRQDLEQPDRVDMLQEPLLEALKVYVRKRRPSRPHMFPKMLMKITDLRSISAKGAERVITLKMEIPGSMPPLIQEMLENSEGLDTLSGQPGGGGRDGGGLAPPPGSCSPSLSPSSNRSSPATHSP

[3] = molecular target: T3, Peroxisome proliferator-activated receptor delta (Homo sapiens) (UniProt Q03181); assay: Inhibition of PPARdelta (unknown origin) transfected in human HEK293 cells co-expressing CMV-beta galactosidase assessed as effect on beta-galactosidase activity at 50 uM after 48 hrs by luciferase reporter gene assay
T3 sequence (whole entry): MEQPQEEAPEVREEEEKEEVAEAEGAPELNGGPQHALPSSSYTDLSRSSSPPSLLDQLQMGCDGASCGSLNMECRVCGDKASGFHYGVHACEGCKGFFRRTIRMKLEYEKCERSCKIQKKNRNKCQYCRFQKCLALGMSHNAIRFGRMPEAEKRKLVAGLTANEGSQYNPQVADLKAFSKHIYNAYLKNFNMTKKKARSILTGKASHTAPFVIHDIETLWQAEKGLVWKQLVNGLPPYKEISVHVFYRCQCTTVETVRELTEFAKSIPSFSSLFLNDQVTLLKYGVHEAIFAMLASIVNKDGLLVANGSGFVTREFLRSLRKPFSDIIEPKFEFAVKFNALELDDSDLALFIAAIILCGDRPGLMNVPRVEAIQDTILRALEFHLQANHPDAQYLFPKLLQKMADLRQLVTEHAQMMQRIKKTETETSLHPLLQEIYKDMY

[4] = molecular target: T4, Oxysterols receptor LXR-alpha (Homo sapiens) (UniProt Q13133); assay: Inhibition of human LXRalpha transfected in human HEK293 cells co-expressing CMV-beta galactosidase assessed as inhibition on T0901317 response at 50 uM after 48 hrs by luciferase reporter gene assay
T4 sequence (whole entry): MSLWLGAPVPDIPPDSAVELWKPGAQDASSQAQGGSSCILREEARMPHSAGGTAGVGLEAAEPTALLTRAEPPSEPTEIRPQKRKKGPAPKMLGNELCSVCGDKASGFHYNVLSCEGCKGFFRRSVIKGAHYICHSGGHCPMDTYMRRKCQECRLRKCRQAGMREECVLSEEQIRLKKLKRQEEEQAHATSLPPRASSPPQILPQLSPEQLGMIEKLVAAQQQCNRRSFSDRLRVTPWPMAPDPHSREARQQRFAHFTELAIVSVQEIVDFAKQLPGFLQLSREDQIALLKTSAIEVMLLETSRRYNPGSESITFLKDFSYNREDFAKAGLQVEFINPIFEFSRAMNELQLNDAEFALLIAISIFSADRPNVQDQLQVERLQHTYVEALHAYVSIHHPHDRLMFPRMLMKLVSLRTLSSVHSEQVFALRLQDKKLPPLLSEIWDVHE

HEK293 = assay: Cytotoxicity against human HEK293 cells

inhibition [1]	inhibition [2]	inhibition [3]	inhibition [4]	Structure (SMILES)	Activity (HEK293)
inactive	inactive	inactive		C=C(CO)c1ccc2c(c1C)[C@@H](C)C[C@H](O)C2=O	
inactive	inactive	inactive		C=C(CO)[C@@H]1CC=C2C[C@@H](O)[C@H](O)[C@@H](C)[C@]2(C)C1 (relative stereo)	
inactive	inactive	inactive	Active	C=C(CO)[C@H]1CC=C2CC[C@@H](O)[C@H](C)[C@@]2(C)C1	Non-Toxic
inactive	inactive	inactive		C=C(CO)c1ccc([C@@H](O)[C@H](O)/C=C/C)c(C)c1 (relative stereo)	
inactive	inactive	inactive		C=C(CO)[C@@]12O[C@@H]1[C@@]1(C)C(=C[C@@H]2OC(C)=O)CC[C@@H](O)[C@@H]1C (relative stereo)	
inactive	inactive	inactive		C=C(CO)[C@]12O[C@H]1[C@]1(C)C(=C[C@H]2OC(C)=O)CCC[C@H]1C	
inactive	inactive	inactive		C=C(CO)[C@H]1C[C@@]2(C)C(=C[C@@H]1O)C[C@H](O)C[C@@H]2C	

More lines, now with the values behind:

Structure (SMILES)	inhibition [1]	inhibition [2]	inhibition [3]	inhibition [4]	Activity (HEK293)
C=C(CO)[C@@]12O[C@@H]1[C@@]1(C)C(=C[C@@H]2O)C=C[C@@H](O)[C@@H]1C	inactive	inactive	inactive		
C=C(CO)[C@@]12O[C@@H]1[C@@]1(C)C(=CC2=O)C[C@H](O)C[C@@H]1C	inactive	inactive	inactive		
C=C(CO)[C@@]12O[C@@H]1[C@@]1(C)C(=C[C@@H]2O)[C@H](O)CC[C@@H]1C	inactive	inactive	inactive		
C=C(CO)c1ccc([C@@H](C)C[C@@H](O)CO)c(C)c1 (relative stereo)	inactive	inactive	inactive	Active	Non-Toxic
C[C@H]1CC(=O)C=C2C=CC(=C(CO)CO)[C@H](O)[C@@]21C	inactive	inactive	inactive		
C=C(CO)[C@@]12O[C@@H]1[C@@]1(C)C(=C[C@@H]2OC(C)=O)C=C[C@@H](O)[C@@H]1C	inactive	inactive	inactive		
